# Source: ChEMBL document CHEMBL1148094, “Graminone B, a novel lignan with vasodilative activity from Imperata cylindrica” (1994)
# The source made the active and inactive calls. The calls are words filed in the database; no cut-off is given here.
# Assays:
# [1] = Vasorelaxant activity in rabbit aorta assessed as inhibition of KCl-induced contractile response at 100 uM; type: functional; conditions: Oryctolagus cuniculus
# Oryctolagus cuniculus = species: Oryctolagus cuniculus; assay: Vasorelaxant activity in rabbit aorta assessed as inhibition of norepinephrine-induced contractile response at 100 uM; type: functional, tissue-based
smiles,measurement,setting,value
COc1cc(O)cc([C@@H]2OC[C@@H]3[C@H]2C(=O)O[C@H]3c2cc(O)c(OC)c(OC)c2)c1 [GRAMINONE B],inhibition at 100 µM,[1],50%
same,Activity,Oryctolagus cuniculus,inactive
